Data: article PMC10700596 (Nature Communications, 2023)
“And” between values parts separate entries of the source, which are not always exact repeats. Equal values may be shown once. Read-outs that look alike come from different tables or passages of the source.

What was measured:
[1] = target: T1, JAK2(JH1domain-catalytic) (Homo sapiens, UniProt O60674); experiment: KINOMEscan; format: binding
T1 construct: JAK2(JH1domain-catalytic); purchased Eurofins DiscoverX KINOMEscan (scanEDGE, 97 kinases)

TSSK1B = TSSK1B (Homo sapiens, UniProt Q9BXA7); experiment: biochemical; format: binding; conditions: 10000 nM; read-out: Percent Control
CSNK1D = CSNK1D (Homo sapiens, UniProt P48730); experiment: biochemical; format: binding; conditions: 10000 nM; read-out: Percent Control
EP4R Thr76Ala mutant = EP4R Thr76Ala mutant (Homo sapiens, UniProt P35408, T76A); format: cell-based; conditions: IC50 vs WT EP4R
Description: three independent experiments. Source data are provided as a Source Data file.
(1 picture or pasted object on this page, not shown here)

320 GPCRs [2] = target: 320 GPCRs (Homo sapiens, UniProt P43116); format: cell-based
320 GPCRs [3] = target: 320 GPCRs (Homo sapiens, UniProt Q96P69); format: cell-based
320 GPCRs [4] = target: 320 GPCRs (Homo sapiens, UniProt Q8NFJ6); format: cell-based
320 GPCRs [5] = target: 320 GPCRs (Homo sapiens, UniProt Q9BZJ7); format: cell-based
Sequence of 320 GPCRs (Homo sapiens, UniProt Q9BZJ7) (Q9BZJ7 whole entry): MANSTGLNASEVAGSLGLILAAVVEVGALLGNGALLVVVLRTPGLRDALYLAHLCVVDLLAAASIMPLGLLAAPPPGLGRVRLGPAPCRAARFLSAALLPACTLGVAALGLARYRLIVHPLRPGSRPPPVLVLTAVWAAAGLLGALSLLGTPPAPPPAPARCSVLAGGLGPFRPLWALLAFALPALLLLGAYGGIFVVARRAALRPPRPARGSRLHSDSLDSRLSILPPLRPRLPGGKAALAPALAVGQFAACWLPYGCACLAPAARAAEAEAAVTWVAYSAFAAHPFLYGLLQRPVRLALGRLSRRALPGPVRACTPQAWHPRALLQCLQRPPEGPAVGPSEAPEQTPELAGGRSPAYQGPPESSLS

320 GPCRs [6] = target: 320 GPCRs (Homo sapiens, UniProt Q8NFN8); format: cell-based
Sequence of 320 GPCRs (Homo sapiens, UniProt Q8NFN8) (Q8NFN8 whole entry): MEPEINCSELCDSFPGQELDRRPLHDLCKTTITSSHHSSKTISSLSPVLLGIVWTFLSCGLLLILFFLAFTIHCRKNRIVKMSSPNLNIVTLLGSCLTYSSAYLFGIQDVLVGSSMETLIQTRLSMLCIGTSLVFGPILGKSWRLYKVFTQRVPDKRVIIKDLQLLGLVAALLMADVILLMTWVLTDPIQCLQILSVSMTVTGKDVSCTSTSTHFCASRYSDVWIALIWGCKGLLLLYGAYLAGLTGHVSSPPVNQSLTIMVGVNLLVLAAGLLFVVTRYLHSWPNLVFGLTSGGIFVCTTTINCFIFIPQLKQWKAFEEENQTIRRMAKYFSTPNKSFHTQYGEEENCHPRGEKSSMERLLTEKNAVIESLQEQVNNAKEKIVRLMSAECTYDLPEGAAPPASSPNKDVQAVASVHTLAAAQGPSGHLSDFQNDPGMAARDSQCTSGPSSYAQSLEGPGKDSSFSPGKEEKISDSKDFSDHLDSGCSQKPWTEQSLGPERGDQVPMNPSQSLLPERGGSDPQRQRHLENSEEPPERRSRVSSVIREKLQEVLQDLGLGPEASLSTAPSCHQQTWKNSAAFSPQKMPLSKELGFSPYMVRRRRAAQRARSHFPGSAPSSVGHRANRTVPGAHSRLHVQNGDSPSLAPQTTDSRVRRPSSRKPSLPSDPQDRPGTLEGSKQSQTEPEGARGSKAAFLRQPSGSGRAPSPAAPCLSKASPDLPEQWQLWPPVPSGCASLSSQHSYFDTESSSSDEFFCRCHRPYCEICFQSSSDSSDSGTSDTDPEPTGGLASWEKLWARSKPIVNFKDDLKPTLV

320 GPCRs [7] = target: 320 GPCRs (Homo sapiens, UniProt P32238); format: cell-based
Sequence of 320 GPCRs (Homo sapiens, UniProt P32238) (P32238 whole entry): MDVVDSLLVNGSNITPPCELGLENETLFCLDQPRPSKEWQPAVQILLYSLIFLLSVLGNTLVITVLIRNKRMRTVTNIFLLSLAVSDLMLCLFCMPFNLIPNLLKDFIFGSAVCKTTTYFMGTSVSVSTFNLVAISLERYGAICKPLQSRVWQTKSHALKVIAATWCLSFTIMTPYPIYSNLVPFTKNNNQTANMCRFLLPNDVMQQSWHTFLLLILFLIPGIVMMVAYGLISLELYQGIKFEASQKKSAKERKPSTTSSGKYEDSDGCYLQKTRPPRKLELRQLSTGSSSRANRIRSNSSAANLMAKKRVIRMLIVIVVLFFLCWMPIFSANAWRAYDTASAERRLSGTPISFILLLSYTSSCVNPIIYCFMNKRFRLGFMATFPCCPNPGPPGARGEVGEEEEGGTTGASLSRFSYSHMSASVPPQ

320 GPCRs [8] = target: 320 GPCRs (Homo sapiens, UniProt P14416); format: cell-based
320 GPCRs [9] = target: 320 GPCRs (Homo sapiens, UniProt P47871); format: cell-based
Sequence of 320 GPCRs (Homo sapiens, UniProt P47871) (P47871 26-477): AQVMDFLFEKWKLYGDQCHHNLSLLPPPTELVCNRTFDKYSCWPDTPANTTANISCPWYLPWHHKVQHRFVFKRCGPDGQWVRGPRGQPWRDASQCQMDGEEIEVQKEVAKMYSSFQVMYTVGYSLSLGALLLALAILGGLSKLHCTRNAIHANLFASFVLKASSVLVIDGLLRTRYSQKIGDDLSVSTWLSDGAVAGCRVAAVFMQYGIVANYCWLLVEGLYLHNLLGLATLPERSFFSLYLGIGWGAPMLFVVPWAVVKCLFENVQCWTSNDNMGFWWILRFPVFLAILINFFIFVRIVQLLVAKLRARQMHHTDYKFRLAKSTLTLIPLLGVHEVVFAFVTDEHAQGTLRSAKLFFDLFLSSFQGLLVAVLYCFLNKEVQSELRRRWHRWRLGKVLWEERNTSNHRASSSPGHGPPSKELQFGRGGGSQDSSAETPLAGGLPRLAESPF

320 GPCRs [10] = target: 320 GPCRs (Homo sapiens, UniProt Q9NS67); format: cell-based
Sequence of 320 GPCRs (Homo sapiens, UniProt Q9NS67) (Q9NS67 whole entry): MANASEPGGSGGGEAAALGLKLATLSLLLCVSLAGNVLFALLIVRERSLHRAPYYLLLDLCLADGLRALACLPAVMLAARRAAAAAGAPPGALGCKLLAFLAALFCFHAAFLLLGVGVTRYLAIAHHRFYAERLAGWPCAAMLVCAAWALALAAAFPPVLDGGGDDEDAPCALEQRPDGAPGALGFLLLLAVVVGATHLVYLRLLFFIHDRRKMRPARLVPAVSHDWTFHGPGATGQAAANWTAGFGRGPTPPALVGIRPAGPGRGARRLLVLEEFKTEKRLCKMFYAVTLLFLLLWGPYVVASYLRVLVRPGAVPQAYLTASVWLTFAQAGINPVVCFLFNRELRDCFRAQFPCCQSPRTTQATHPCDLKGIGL

320 GPCRs [11] = target: 320 GPCRs (Homo sapiens, UniProt O00254); format: cell-based
Sequence of 320 GPCRs (Homo sapiens, UniProt O00254) (O00254 22-374): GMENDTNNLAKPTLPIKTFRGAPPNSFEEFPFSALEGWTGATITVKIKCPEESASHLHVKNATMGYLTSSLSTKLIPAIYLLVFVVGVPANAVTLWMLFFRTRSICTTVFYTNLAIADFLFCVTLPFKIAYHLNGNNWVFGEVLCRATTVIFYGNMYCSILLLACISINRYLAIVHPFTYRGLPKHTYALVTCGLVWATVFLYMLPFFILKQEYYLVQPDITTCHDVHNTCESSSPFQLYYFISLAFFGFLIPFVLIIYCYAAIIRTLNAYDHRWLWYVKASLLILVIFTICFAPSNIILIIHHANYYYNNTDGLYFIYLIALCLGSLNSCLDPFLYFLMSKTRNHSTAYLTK

320 GPCRs [12] = format: cell-based
320 GPCRs [13] = target: 320 GPCRs (Homo sapiens, UniProt Q14439); format: cell-based
320 GPCRs [14] = target: 320 GPCRs (Homo sapiens, UniProt P43115); format: cell-based
320 GPCRs [15] = target: 320 GPCRs (Homo sapiens, UniProt P47901); format: cell-based
Sequence of 320 GPCRs (Homo sapiens, UniProt P47901) (P47901 whole entry): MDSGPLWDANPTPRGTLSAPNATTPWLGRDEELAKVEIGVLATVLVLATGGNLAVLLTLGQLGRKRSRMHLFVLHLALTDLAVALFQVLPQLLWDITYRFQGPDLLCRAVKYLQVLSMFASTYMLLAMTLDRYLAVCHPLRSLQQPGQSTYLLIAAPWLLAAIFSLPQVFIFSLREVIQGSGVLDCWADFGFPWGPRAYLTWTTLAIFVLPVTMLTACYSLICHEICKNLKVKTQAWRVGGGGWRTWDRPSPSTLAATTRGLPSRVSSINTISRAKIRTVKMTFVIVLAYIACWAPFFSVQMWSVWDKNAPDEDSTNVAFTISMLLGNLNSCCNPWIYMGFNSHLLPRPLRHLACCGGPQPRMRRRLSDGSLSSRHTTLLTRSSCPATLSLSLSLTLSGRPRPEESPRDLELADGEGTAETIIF

320 GPCRs [16] = target: 320 GPCRs (Homo sapiens, UniProt O15303); format: cell-based
320 GPCRs [17] = target: 320 GPCRs (Homo sapiens, UniProt P43119); format: cell-based
320 GPCRs [18] = target: 320 GPCRs (Homo sapiens, UniProt P41968); format: cell-based
Sequence of 320 GPCRs (Homo sapiens, UniProt P41968) (P41968 whole entry): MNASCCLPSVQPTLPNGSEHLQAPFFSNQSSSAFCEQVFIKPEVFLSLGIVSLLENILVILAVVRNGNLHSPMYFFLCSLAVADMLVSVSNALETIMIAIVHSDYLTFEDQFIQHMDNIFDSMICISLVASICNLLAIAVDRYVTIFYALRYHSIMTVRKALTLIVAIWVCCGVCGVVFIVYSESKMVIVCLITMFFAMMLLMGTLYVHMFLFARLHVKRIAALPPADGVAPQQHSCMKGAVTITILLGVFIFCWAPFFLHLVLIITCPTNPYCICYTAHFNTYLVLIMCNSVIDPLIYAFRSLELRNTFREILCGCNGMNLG

320 GPCRs [19] = target: 320 GPCRs (Homo sapiens, UniProt P35462); format: cell-based
320 GPCRs [20] = target: 320 GPCRs (Homo sapiens, UniProt Q9Y653); format: cell-based
Sequence of 320 GPCRs (Homo sapiens, UniProt Q9Y653) (Q9Y653 26-693): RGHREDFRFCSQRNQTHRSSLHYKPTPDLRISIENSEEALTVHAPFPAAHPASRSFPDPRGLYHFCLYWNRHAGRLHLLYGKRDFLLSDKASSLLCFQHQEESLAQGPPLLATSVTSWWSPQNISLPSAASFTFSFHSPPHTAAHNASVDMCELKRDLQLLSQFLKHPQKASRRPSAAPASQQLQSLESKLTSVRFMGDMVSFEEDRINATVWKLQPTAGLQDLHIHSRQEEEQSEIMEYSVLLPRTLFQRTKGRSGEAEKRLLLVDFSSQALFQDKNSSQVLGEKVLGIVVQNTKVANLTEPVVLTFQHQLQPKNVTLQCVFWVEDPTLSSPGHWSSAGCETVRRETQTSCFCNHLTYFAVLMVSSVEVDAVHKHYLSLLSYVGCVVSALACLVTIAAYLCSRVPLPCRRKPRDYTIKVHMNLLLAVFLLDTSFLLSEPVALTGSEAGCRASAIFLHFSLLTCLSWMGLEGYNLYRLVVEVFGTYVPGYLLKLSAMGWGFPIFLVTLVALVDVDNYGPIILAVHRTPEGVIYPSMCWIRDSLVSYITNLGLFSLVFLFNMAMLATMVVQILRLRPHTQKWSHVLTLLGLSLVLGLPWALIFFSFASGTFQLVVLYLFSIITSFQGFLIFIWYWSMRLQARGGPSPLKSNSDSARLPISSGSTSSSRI

320 GPCRs [21] = target: 320 GPCRs (Homo sapiens, UniProt P48039); format: cell-based
320 GPCRs [22] = target: 320 GPCRs (Homo sapiens, UniProt Q03431); format: cell-based
Sequence of 320 GPCRs (Homo sapiens, UniProt Q03431) (Q03431 27-593): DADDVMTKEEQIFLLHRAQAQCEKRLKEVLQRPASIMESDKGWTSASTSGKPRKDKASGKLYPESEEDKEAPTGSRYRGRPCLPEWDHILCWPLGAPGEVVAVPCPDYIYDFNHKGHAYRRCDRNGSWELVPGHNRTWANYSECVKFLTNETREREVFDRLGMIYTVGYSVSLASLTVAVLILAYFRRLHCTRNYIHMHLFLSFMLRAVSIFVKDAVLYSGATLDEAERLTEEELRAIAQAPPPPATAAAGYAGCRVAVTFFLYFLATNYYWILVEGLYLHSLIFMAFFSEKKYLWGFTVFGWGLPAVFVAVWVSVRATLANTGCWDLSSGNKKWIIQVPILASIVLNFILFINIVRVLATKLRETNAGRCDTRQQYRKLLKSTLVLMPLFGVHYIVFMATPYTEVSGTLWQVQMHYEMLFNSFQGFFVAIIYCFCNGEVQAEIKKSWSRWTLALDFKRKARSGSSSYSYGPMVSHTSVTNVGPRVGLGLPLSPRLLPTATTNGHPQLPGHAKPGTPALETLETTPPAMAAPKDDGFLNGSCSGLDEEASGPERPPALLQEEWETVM

320 GPCRs [23] = target: 320 GPCRs (Homo sapiens, UniProt Q9H1C0); format: cell-based
320 GPCRs [24] = target: 320 GPCRs (Homo sapiens, UniProt P49238); format: cell-based
CDK9 = CDK9 (Homo sapiens, UniProt P50750); experiment: biochemical; format: binding; conditions: 10000 nM; read-out: Percent Control
CSF1R = CSF1R (Homo sapiens, UniProt P07333); experiment: biochemical; format: binding; conditions: 10000 nM; read-out: Percent Control
mice = format: in vivo; set-up: Paw Thickness / Paw thickness AVG 30 / Paw thickness AVG 60 / Paw thickness AVG 120: unit not given here; conditions: for Paw Thickness: duplicate readings; for Paw thickness %BL CARR: used for Figure 3E
[25] = 30 min, Carrageenan 30 µg, Group Average of 5 mice
[26] = 30 min, Carrageenan 30 µg, individual mouse
[27] = 60 min, Carrageenan 30 µg, Group Average of 5 mice
[28] = 60 min, Carrageenan 30 µg, individual mouse
[29] = 120 min, Carrageenan 30 µg, Group Average of 5 mice
[30] = 120 min, Carrageenan 30 µg, individual mouse
[31] = 180 min, Carrageenan 30 µg, Group Average of 5 mice
[32] = 180 min, Carrageenan 30 µg, individual mouse
[33] = 24 hours, Carrageenan 30 µg, Group Average of 5 mice
[34] = 24 hours, Carrageenan 30 µg, individual mouse

O=C(O)C1CCC2(CC1)CC(Nc1ncnc3[nH]c4c(F)cccc4c13)C2 (stereo not shown) [Compound 74, OC(=O)C1CCC2(CC(C2)NC=3N=CN=C4NC=5C(F)=CC=CC5C34)CC1]
remaining binding at 10 µM ([1]; 10000 nM, read-out: Percent Control): 0%
Signal (qPCR) ([1]; JAK2, [Compound] 0.001 nM): 2.42e-6 and 2.15e-6
Signal (qPCR) ([1]; JAK2, [Compound] 0.01 nM): 2.35e-6 and 2.44e-6
Signal (qPCR) ([1]; JAK2, [Compound] 0.169 nM): 2.62e-6 and 2.24e-6
Signal (qPCR) ([1]; JAK2, [Compound] 0.508 nM): 2.26e-6 and 2.31e-6
Signal (qPCR) ([1]; JAK2, [Compound] 1.52 nM): 2.56e-6 and 2.32e-6
Signal (qPCR) ([1]; JAK2, [Compound] 13.7 nM): 2.33e-6 and 2.17e-6
Signal (qPCR) ([1]; JAK2, [Compound] 41.2 nM): 2.15e-6 and 2.16e-6
Signal (qPCR) ([1]; JAK2, [Compound] 123 nM): 2.08e-6 and 2e-6
Signal (qPCR) ([1]; JAK2, [Compound] 370 nM): 1.2e-6
Signal (qPCR) ([1]; JAK2, [Compound] 3330 nM): 1.6e-7 and 1.8e-7
Signal (qPCR) ([1]; JAK2, [Compound] 10000 nM): 4e-8
remaining activity at 10 µM (TSSK1B): 52%
remaining activity at 10 µM (CSNK1D): 3.2%
reduced potency at the Thr76Ala mutant (EP4R Thr76Ala mutant): 30 fold
RLU (Fold over Basal) (320 GPCRs [2]): 1.1 Fold over Basal and 1.2 Fold over Basal and 2 Fold over Basal and 1.3 Fold over Basal
RLU (Fold over Basal) (320 GPCRs [3]): 1 Fold over Basal and 0.5 Fold over Basal and 0.9 Fold over Basal
RLU (Fold over Basal) (320 GPCRs [4]): 0.7 Fold over Basal and 1.4 Fold over Basal and 1.3 Fold over Basal and 1.1 Fold over Basal
RLU (Fold over Basal) (320 GPCRs [5]): 0.6 Fold over Basal and 0.5 Fold over Basal and 0.8 Fold over Basal
RLU (Fold over Basal) (320 GPCRs [6]): 1.2 Fold over Basal and 1 Fold over Basal and 0.6 Fold over Basal
RLU (Fold over Basal) (320 GPCRs [7]): 1.2 Fold over Basal and 0.7 Fold over Basal and 0.6 Fold over Basal and 1 Fold over Basal
RLU (Fold over Basal) (320 GPCRs [8]): 0.6 Fold over Basal and 0.5 Fold over Basal
RLU (Fold over Basal) (320 GPCRs [9]): 1 Fold over Basal and 0.5 Fold over Basal and 0.8 Fold over Basal
RLU (Fold over Basal) (320 GPCRs [10]): 0.4 Fold over Basal and 0.7 Fold over Basal and 0.8 Fold over Basal and 0.6 Fold over Basal
RLU (Fold over Basal) (320 GPCRs [11]): 2 Fold over Basal and 1.8 Fold over Basal and 3 Fold over Basal and 2.4 Fold over Basal
agonist activity in GPCR panel (320 GPCRs [12]): no agonist activity
RLU (Fold over Basal) (320 GPCRs [13]): 0.8 Fold over Basal and 1.3 Fold over Basal and 1 Fold over Basal
RLU (Fold over Basal) (320 GPCRs [14]): 0.5 Fold over Basal and 0.7 Fold over Basal
RLU (Fold over Basal) (320 GPCRs [15]): 0.9 Fold over Basal and 1 Fold over Basal and 0.5 Fold over Basal
RLU (Fold over Basal) (320 GPCRs [16]): 1.6 Fold over Basal and 0.8 Fold over Basal and 1 Fold over Basal
RLU (Fold over Basal) (320 GPCRs [17]): 0.9 Fold over Basal and 0.6 Fold over Basal and 0.7 Fold over Basal and 1 Fold over Basal
RLU (Fold over Basal) (320 GPCRs [18]): 0.5 Fold over Basal and 1 Fold over Basal and 0.7 Fold over Basal and 0.8 Fold over Basal
RLU (Fold over Basal) (320 GPCRs [19]): 0.5 Fold over Basal and 0.6 Fold over Basal
RLU (Fold over Basal) (320 GPCRs [20]): 0.9 Fold over Basal and 0.7 Fold over Basal and 0.8 Fold over Basal
RLU (Fold over Basal) (320 GPCRs [21]): 0.9 Fold over Basal and 0.8 Fold over Basal
RLU (Fold over Basal) (320 GPCRs [22]): 1.2 Fold over Basal and 1.1 Fold over Basal and 1.4 Fold over Basal
RLU (Fold over Basal) (320 GPCRs [23]): 0.9 Fold over Basal and 0.8 Fold over Basal and 1.3 Fold over Basal
RLU (Fold over Basal) (320 GPCRs [24]): 1 Fold over Basal
remaining activity at 10 µM (CDK9): 97%
remaining activity at 10 µM (CSF1R): 69%

O=C([O-])C1CCC2(CC1)CC(Nc1ncnc3[nH]c4c(F)cccc4c13)C2.[Na+] (stereo not shown) [Compound 77, [Na+].[O-]C(=O)C1CCC2(CC(C2)NC=3N=CN=C4NC=5C(F)=CC=CC5C34)CC1]
effect on carrageenan-induced paw edema (mice; 30 mg/kg i.p., one day after carrageenan): significantly reduced
Paw thickness %BL CARR, Group Average (mice; [25]): 92.2% and 96.7%
Paw thickness %Baseline, Group Average (mice; [25]): 118.7% and 118.1%
Paw thickness AVG 30, Group Average (mice; [25]): 2.0
Paw thickness %Baseline (mice; [26]): 122.7% and 124.6% and 120.5% and 111.5% and 114.1% and 116.5% and 122.2% and 107.4% and 119.7% and 124.9%
Paw thickness AVG 30 (mice; [26]): 2.0 and 2.2 and 2.1 and 1.9 and 1.8
Paw Thickness (mice; [26]): 1.9 and 2.04 and 2.2 and 2.1 and 2.14 and 2.06 and 1.98 and 2.08 and 1.95 and 1.77 and 1.88 and 2 and 2.13 and 2.02
Paw thickness %BL CARR (mice; [26]): 89.5% and 101.4% and 91.7% and 92.1% and 86.4% and 102.3% and 101.6% and 84.9% and 96.7% and 98.1%
Paw thickness %BL CARR, Group Average (mice; [27]): 91.8% and 95.5%
Paw thickness %Baseline, Group Average (mice; [27]): 118.2% and 116.8%
Paw thickness AVG 60, Group Average (mice; [27]): 2.0
Paw thickness %Baseline (mice; [28]): 124.6% and 118.8% and 118.2% and 112.4% and 117.1% and 109.8% and 115.0% and 114.7% and 118.3% and 126.1%
Paw thickness AVG 60 (mice; [28]): 2.0 and 2.1 and 1.9
Paw Thickness (mice; [28]): 2.1 and 1.9 and 2 and 2.02 and 1.97 and 1.98 and 2.05 and 2.09 and 2.2
Paw thickness %BL CARR (mice; [28]): 90.9% and 96.7% and 89.9% and 92.8% and 88.6% and 96.4% and 95.6% and 90.7% and 99.1%
Paw thickness %BL CARR, Group Average (mice; [29]): 89.1% and 94.8%
Paw thickness %Baseline, Group Average (mice; [29]): 114.9% and 115.9%
Paw thickness AVG 120, Group Average (mice; [29]): 2.0
Paw thickness %Baseline (mice; [30]): 126.2% and 111.6% and 112.4% and 111.0% and 113.2% and 111.3% and 115.8% and 115.9% and 114.2% and 122.2%
Paw thickness AVG 120 (mice; [30]): 2.0 and 1.9 and 2.1
Paw Thickness (mice; [30]): 2 and 2.05 and 1.9 and 1.95 and 2.04 and 2.1 and 2.07 and 1.91 and 2.03 and 1.94 and 1.97
Paw thickness %BL CARR (mice; [30]): 92.0% and 90.8% and 85.5% and 91.6% and 85.7% and 97.7% and 96.3% and 92.3% and 96.0%
Paw thickness %BL CARR, Group Average (mice; [31]): 89.9% and 92.7%
Paw thickness %Baseline, Group Average (mice; [31]): 115.8% and 113.3%
Paw thickness AVG 180, Group Average (mice; [31]): 2.0
Paw thickness %Baseline (mice; [32]): 125.5% and 114.5% and 111.0% and 112.4% and 115.6% and 112.7% and 106.9% and 111.8% and 115.9% and 118.9%
Paw thickness AVG 180 (mice; [32]): 2.0 and 1.9
Paw Thickness (mice; [32]): 2.03 and 2 and 1.95 and 1.9 and 2.09 and 2.02 and 1.91 and 1.99 and 1.96
Paw thickness %BL CARR (mice; [32]): 91.6% and 93.2% and 84.4% and 92.8% and 87.5% and 99.0% and 88.9% and 88.4% and 93.7% and 93.4%
Paw thickness %BL CARR, Group Average (mice; [33]): 85.7% and 94.0%
Paw thickness %Baseline, Group Average (mice; [33]): 110.4% and 114.8%
Paw thickness AVG 24h, Group Average (mice; [33]): 1.9 and 2.0
Paw thickness %Baseline (mice; [34]): 118.4% and 111.0% and 109.2% and 105.9% and 107.4% and 115.6% and 114.7% and 114.5% and 120.1%
Paw thickness AVG 24h (mice; [34]): 1.9 and 1.8 and 2.0
Paw Thickness (mice; [34]): 1.9 (2×) and 1.83 and 2 and 1.92 and 1.87 and 1.84 and 1.8 and 1.85 and 1.93 and 1.95 (2×)
Paw thickness %BL CARR (mice; [34]): 86.4% and 90.3% and 83.1% and 87.4% and 81.3% and 101.5% and 90.8% and 90.7% and 92.5% and 94.3%
